Laboratory results published in US11083729B2, “Methods of treating cancer with small molecule NF-κB inhibitors” (ImmuneTarget, Inc., priority 2017, dated 2021).

Biological target: T1, c-Rel protein (Homo sapiens, UniProt Q04864)
T1 sequence (Q04864 1-619): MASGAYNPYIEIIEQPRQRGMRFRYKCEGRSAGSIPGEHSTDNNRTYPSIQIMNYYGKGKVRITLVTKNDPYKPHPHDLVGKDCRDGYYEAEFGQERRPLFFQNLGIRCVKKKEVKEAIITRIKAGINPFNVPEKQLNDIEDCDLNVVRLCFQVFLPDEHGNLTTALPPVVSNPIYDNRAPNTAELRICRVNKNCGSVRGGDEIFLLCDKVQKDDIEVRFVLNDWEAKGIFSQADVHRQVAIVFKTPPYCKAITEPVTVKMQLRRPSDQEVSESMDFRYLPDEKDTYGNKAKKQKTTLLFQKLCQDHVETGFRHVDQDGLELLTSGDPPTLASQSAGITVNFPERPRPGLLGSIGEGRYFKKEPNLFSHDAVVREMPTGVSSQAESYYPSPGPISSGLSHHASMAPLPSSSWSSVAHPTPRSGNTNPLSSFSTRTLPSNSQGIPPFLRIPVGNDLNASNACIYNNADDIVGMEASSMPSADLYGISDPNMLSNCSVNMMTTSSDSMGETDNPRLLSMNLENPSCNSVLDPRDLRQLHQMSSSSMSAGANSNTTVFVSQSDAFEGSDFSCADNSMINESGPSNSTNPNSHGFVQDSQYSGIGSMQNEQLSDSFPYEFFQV
Assay: Electrophoretic Mobility Shift Assay (EMSA), c-Rel binding to CD28RE oligonucleotide
Details: 10 nM c-Rel protein
Protocol: DNA binding reaction (20 μL) was carried out in 1×DNA Binding Buffer (10 mM Tris, 40 mM NaCl, 1 mM EDTA, 4% glycerol) with 10 nM c-Rel protein and 0.5 ng phosphor-labeled CD28RE oligonucleotide for 10 minutes at room temperature in 96-well plates. Test compounds, in serial dilutions, were added into each well, and further incubated for 15 minutes before loading onto native 5% polyacrylamide gel. Electrophoresis proceeded for 2.5 hours at 160V. Radioactive signals were quantified using Phospho-Imager. IC50 of compounds of example 1 to 75 were determined by quantifying the intensity of Rel/NF-κB inhibition in EMSA using phospho-imager. An example of EMSA data of the present invention is shown for compound 6 in FIG. 2.

| SMILES | IC50 |
| --- | --- |
| CCOc1cccc2cc3c(=O)[nH]c(=O)nc-3oc12 [compound 2, 9-ethoxy-2H-chromeno[2,3-d]pyrimidine-2,4(3H)-dione] | < 2000 nM |
| O=C(O)CCCCCOc1ccc2cc3c(=O)[nH]c(=O)nc-3oc2c1Cl [compound 53, 6-((9-chloro-2,4-dioxo-3,4-dihydro-2H-chromeno[2,3-d]pyrimidin-8-yl)oxy)hexanoic acid] | < 5000 nM |
| O=C(O)CCCOc1ccc2cc3c(=O)[nH]c(=O)nc-3oc2c1Cl [compound 55] | < 5000 nM |
| COCCOCCOc1cc2oc3nc(=O)[nH]c(=O)c-3cc2cc1Cl [compound 64] | < 1000 nM |
| COCCCCOc1cc2oc3nc(=O)[nH]c(=O)c-3cc2cc1Cl [compound 69] | < 1000 nM |
| COCCOCCCOc1cc2oc3nc(=O)[nH]c(=O)c-3cc2cc1F [compound 75, 7-fluoro-8-(3-(2-methoxyethoxy)propoxy)-2H-chromeno[2,3-d]pyrimidine-2,4(3H)-dione] | < 1000 nM |
| CC(C)CCCOc1ccc2cc3c(=O)[nH]c(=O)nc-3oc2c1F [compound 47] | < 1000 nM |
| COCCOCCCOc1ccc2cc3c(=O)[nH]c(=O)nc-3oc2c1 [compound 71] | < 1000 nM |
| COc1cccc2cc3c(=O)[nH]c(=O)nc-3oc12 [compound 1, 9-methoxy-2H-chromeno[2,3-d]pyrimidine-2,4(3H)-dione] | < 2000 nM |
| O=c1nc2oc3ccccc3cc-2c(=O)[nH]1 [compound 9, 2H-chromeno[2,3-d]pyrimidine-2,4(3H)-dione] | < 5000 nM |
| CCCCn1c(=O)nc2oc3cc(OCC)ccc3cc-2c1=O [compound 24, 3-(n-butyl)-8-ethoxy-2H-chromeno[2,3-d]pyrimidine-2,4(3H)-dione] | < 1000 nM |
| COc1ccc2cc3c(=O)[nH]c(=O)nc-3oc2c1 [compound 6, 8-methoxy-2H-chromeno[2,3-d]pyrimidine-2,4(3H)-dione] | < 1000 nM |
| COCCOCCOc1ccc2cc3c(=O)[nH]c(=O)nc-3oc2c1F [compound 63] | < 1000 nM |
| COc1ccc2oc3nc(=O)[nH]c(=O)c-3cc2c1 [compound 10, 7-methoxy-2H-chromeno[2,3-d]pyrimidine-2,4(3H)-dione] | < 1000 nM |
| CCOc1ccc2cc3c(=O)[nH]c(=O)nc-3sc2c1 [compound 49, 8-ethoxy-2H-thiochromeno[2,3-d]pyrimidine-2,4(3H)-dione] | < 1000 nM |
| CC(C)COc1ccc2cc3c(=O)[nH]c(=O)nc-3oc2c1 [compound 23, 8-isobutoxy-2H-chromeno[2,3-d]pyrimidine-2,4(3H)-dione] | < 1000 nM |
| CC(=O)OCCCCCCOc1ccc2cc3c(=O)[nH]c(=O)nc-3oc2c1Cl [compound 58] | < 5000 nM |
| CC(=O)OCCCCOc1ccc2cc3c(=O)[nH]c(=O)nc-3oc2c1Cl [compound 60, 4-((9-chloro-2,4-dioxo-3,4-dihydro-2H-chromeno[2,3-d]pyrimidin-8-yl)oxy)butyl acetate] | < 5000 nM |
| COc1cc(Br)cc2cc3c(=O)[nH]c(=O)nc-3oc12 [compound 4, 7-bromo-9-methoxy-2H-chromeno[2,3-d]pyrimidine-2,4(3H)-dione] | < 2000 nM |
| CCOc1ccc2cc3c(=O)[nH]c(=O)nc-3oc2c1Cl [compound 22, 9-chloro-8-ethoxy-2H-chromeno[2,3-d]pyrimidine-2,4(3H)-dione] | < 1000 nM |
| COc1cc(Cl)cc2cc3c(=O)[nH]c(=S)nc-3oc12 [compound 7, 7-chloro-9-methoxy-2-thioxo-2H-chromeno[2,3-d]pyrimidin-4(3H)-one] | < 2000 nM |
| COCCOCCOc1ccc2cc3c(=O)[nH]c(=O)nc-3oc2c1Cl [compound 62] | < 1000 nM |
| COCCCCOc1cc2oc3nc(=O)[nH]c(=O)c-3cc2cc1F [compound 70] | < 1000 nM |
| COc1cc(Cl)cc2cc3c(=O)[nH]c(=O)nc-3oc12 [compound 3, 7-chloro-9-methoxy-2H-chromeno[2,3-d]pyrimidine-2,4(3H)-dione] | < 2000 nM |

Second part, the compound after the results:

| IC50 | SMILES |
| --- | --- |
| < 1000 nM | COCCOCCOc1ccc2cc3c(=O)[nH]c(=O)nc-3oc2c1 [compound 61, 8-(2-(2-methoxyethoxy)ethoxy)-2H-chromeno[2,3-d]pyrimidine-2,4(3H)-dione] |
| < 1000 nM | COCCOCCCOc1cc2oc3nc(=O)[nH]c(=O)c-3cc2cc1Cl [compound 74] |
| < 1000 nM | COCCOCCCOc1ccc2cc3c(=O)[nH]c(=O)nc-3oc2c1F [compound 73] |
| < 500 nM | CC(C)(C)CCOc1cc2oc3nc(=O)[nH]c(=O)c-3cc2cc1F [compound 34] |
| < 500 nM | CC(C)(C)CCOc1ccc2cc3c(=O)[nH]c(=O)nc-3oc2c1Cl [compound 41] |
| < 500 nM | CCCCOc1ccc2cc3c(=O)[nH]c(=O)nc-3oc2c1Cl [compound 43] |
| < 500 nM | COc1ccc2oc3nc(=S)[nH]c(=O)c-3cc2c1 [compound 15, 7-methoxy-2-thioxo-2H-chromeno[2,3-d]pyrimidin-4(3H)-one] |
| < 500 nM | Cc1ccc2cc3c(=O)[nH]c(=S)nc-3oc2c1 [compound 17, 8-methyl-2-thioxo-2H-chromeno[2,3-d]pyrimidin-4(3H)-one] |
| < 1000 nM | COCCCCOc1ccc2cc3c(=O)[nH]c(=O)nc-3oc2c1F [compound 68] |
| < 1000 nM | O=c1nc2oc3cc(O)ccc3cc-2c(=O)[nH]1 [compound 11, 8-hydroxy-2H-chromeno[2,3-d]pyrimidine-2,4(3H)-dione] |
| < 1000 nM | CCCCn1c(=O)nc2oc3cc(OCC)c(Cl)cc3cc-2c1=O [compound 26, 3-butyl-7-chloro-8-ethoxy-2H-chromeno[2,3-d]pyrimidine-2,4(3H)-dione] |
| < 1000 nM | CC(=O)OCCCCOc1ccc2cc3c(=O)[nH]c(=O)nc-3oc2c1 [compound 51] |
| < 500 nM | CCCCCOc1cc2oc3nc(=O)[nH]c(=O)c-3cc2cc1F [compound 30] |
| < 1000 nM | COCCOCCCOc1ccc2cc3c(=O)[nH]c(=O)nc-3oc2c1Cl [compound 72] |
| < 500 nM | COc1cc(OC)c2cc3c(=O)[nH]c(=S)nc-3oc2c1 [compound 18, 6,8-dimethoxy-2-thioxo-2H-chromeno[2,3-d]pyrimidin-4(3H)-one] |
| < 500 nM | Cc1cc2oc3nc(=O)[nH]c(=O)c-3cc2cc1F [compound 27, 7-fluoro-8-methyl-2H-chromeno[2,3-d]pyrimidine-2,4(3H)-dione] |
| < 500 nM | CCCCOc1ccc2cc3c(=O)[nH]c(=O)nc-3oc2c1F [compound 45] |
| < 500 nM | CC(C)(C)COc1cc2oc3nc(=O)[nH]c(=O)c-3cc2cc1F [compound 36] |
| < 500 nM | COc1ccc2cc3c(=O)[nH]c(=S)nc-3oc2c1 [compound 8, 8-methoxy-2-thioxo-2H-chromeno[2,3-d]pyrimidin-4(3H)-one] |
| < 500 nM | CC(C)COc1cc2oc3nc(=O)[nH]c(=O)c-3cc2cc1Cl [compound 38] |
| < 500 nM | CCCCCCOc1cc2oc3nc(=O)[nH]c(=O)c-3cc2cc1Cl [compound 37] |
| < 500 nM | CCCCCCCOc1cc2oc3nc(=O)[nH]c(=O)c-3cc2cc1F [compound 32] |
| < 500 nM | CCCCCCOc1ccc2cc3c(=O)[nH]c(=O)nc-3oc2c1F [compound 46] |
| < 500 nM | CCCCCCOc1cc2oc3nc(=O)[nH]c(=O)c-3cc2cc1F [compound 31] |
| < 500 nM | CC(C)CCOc1cc2oc3nc(=O)[nH]c(=O)c-3cc2cc1F [compound 33] |
| < 500 nM | CCCCOc1cc2oc3nc(=O)[nH]c(=O)c-3cc2cc1F [compound 29] |
